Experimental data as given in patent US12065442B2, “Tropomyosin receptor kinase (TRK) degradation compounds and methods of use” (Cullgen (Shanghai), Inc., priority 2018, dated 2024).
pIC50: −log10 of the molar value.

System: KM12 cells
Experiment: Cell viability assay (CellTiter-Glo) in KM12 cells
Assay type: cell-based
Conditions: Homo sapiens, 72 h; Table 3; KM12 cell viability, CellTiter-Glo, 3 days; read-out: IC50

SMILES	pIC50
O=C(CN1CCN(c2cccc(-c3cnc4ccc(N5CCC[C@@H]5c5cccc(F)c5)nn34)n2)CC1)NCCCCCNc1cccc2c1C(=O)N(C1CCC(=O)NC1=O)C2=O (stereo partly drawn) [TR-103, N-(5-((2-(2,6-dioxopiperidin-3-yl)-1,3-dioxoisoindolin-4-yl)amino)pentyl)-2-(4-(6-(6-((R)-2-(3-fluorophenyl)pyrrolidin-1-yl)imidazo[1,2-b]pyridazin-3-yl)pyridin-2-yl)piperazin-1-yl)acetamide]	7.87
O=C(CN1CCN(c2cccc(-c3cnc4ccc(N5CCC[C@@H]5c5cccc(F)c5)nn34)n2)CC1)NCCOCCOCCOCCOCCOCCNc1cccc2c1C(=O)N(C1CCC(=O)NC1=O)C2=O (stereo partly drawn) [TR-104, N-(17-((2-(2,6-dioxopiperidin-3-yl)-1,3-dioxoisoindolin-4-yl)amino)-3,6,9,12,15-pentaoxaheptadecyl)-2-(4-(6-(6-((R)-2-(3-fluorophenyl)pyrrolidin-1-yl)imidazo[1,2-b]pyridazin-3-yl)pyridin-2-yl)piperazin-1-yl)acetamide]	8.09
O=C(CN1CCN(c2cccc(-c3cnc4ccc(N5CCC[C@@H]5c5cccc(F)c5)nn34)n2)CC1)NCCOCCOCCNc1cccc2c1C(=O)N(C1CCC(=O)NC1=O)C2=O (stereo partly drawn) [TR-105, N-(2-(2-(2-((2-(2,6-dioxopiperidin-3-yl)-1,3-dioxoisoindolin-4-yl)amino)ethoxy)ethoxy)ethyl)-2-(4-(6-(6-((R)-2-(3-fluorophenyl)pyrrolidin-1-yl)imidazo[1,2-b]pyridazin-3-yl)pyridin-2-yl)piperazin-1-yl)acetamide]	8.00
O=C(CN1CCN(c2cccc(-c3cnc4ccc(N5CCC[C@@H]5c5cccc(F)c5)nn34)n2)CC1)NCCOCCNc1cccc2c1C(=O)N(C1CCC(=O)NC1=O)C2=O (stereo partly drawn) [TR-106, N-(2-(2-((2-(2,6-dioxopiperidin-3-yl)-1,3-dioxoisoindolin-4-yl)amino)ethoxy)ethyl)-2-(4-(6-(6-((R)-2-(3-fluorophenyl)pyrrolidin-1-yl)imidazo[1,2-b]pyridazin-3-yl)pyridin-2-yl)piperazin-1-yl)acetamide]	8.42
O=C(CN1CCN(c2cccc(-c3cnc4ccc(N5CCC[C@@H]5c5cccc(F)c5)nn34)n2)CC1)NCCCCNc1cccc2c1C(=O)N(C1CCC(=O)NC1=O)C2=O (stereo partly drawn) [TR-107, N-(4-((2-(2,6-dioxopiperidin-3-yl)-1,3-dioxoisoindolin-4-yl)amino)butyl)-2-(4-(6-(6-((R)-2-(3-fluorophenyl)pyrrolidin-1-yl)imidazo[1,2-b]pyridazin-3-yl)pyridin-2-yl)piperazin-1-yl)acetamide]	8.08
O=C(CN1CCN(c2cccc(-c3cnc4ccc(N5CCC[C@@H]5c5cccc(F)c5)nn34)n2)CC1)NCCOCCOCCOCCOCCNc1cccc2c1C(=O)N(C1CCC(=O)NC1=O)C2=O (stereo partly drawn) [TR-108, N-(14-((2-(2,6-dioxopiperidin-3-yl)-1,3-dioxoisoindolin-4-yl)amino)-3,6,9,12-tetraoxatetradecyl)-2-(4-(6-(6-((R)-2-(3-fluorophenyl)pyrrolidin-1-yl)imidazo[1,2-b]pyridazin-3-yl)pyridin-2-yl)piperazin-1-yl)acetamide]	8.40
O=C(CN1CCN(c2cccc(-c3cnc4ccc(N5CCC[C@@H]5c5cccc(F)c5)nn34)n2)CC1)NCCCNc1cccc2c1C(=O)N(C1CCC(=O)NC1=O)C2=O (stereo partly drawn) [TR-109, N-(3-((2-(2,6-dioxopiperidin-3-yl)-1,3-dioxoisoindolin-4-yl)amino)propyl)-2-(4-(6-(6-((R)-2-(3-fluorophenyl)pyrrolidin-1-yl)imidazo[1,2-b]pyridazin-3-yl)pyridin-2-yl)piperazin-1-yl)acetamide]	8.44
O=C(CN1CCN(c2cccc(-c3cnc4ccc(N5CCC[C@@H]5c5cccc(F)c5)nn34)n2)CC1)NCCCCCCCNc1cccc2c1C(=O)N(C1CCC(=O)NC1=O)C2=O (stereo partly drawn) [TR-110, N-(7-((2-(2,6-dioxopiperidin-3-yl)-1,3-dioxoisoindolin-4-yl)amino)heptyl)-2-(4-(6-(6-((R)-2-(3-fluorophenyl)pyrrolidin-1-yl)imidazo[1,2-b]pyridazin-3-yl)pyridin-2-yl)piperazin-1-yl)acetamide]	7.44
O=C(CN1CCN(c2cccc(-c3cnc4ccc(N5CCC[C@@H]5c5cccc(F)c5)nn34)n2)CC1)NCCCCCCNc1cccc2c1C(=O)N(C1CCC(=O)NC1=O)C2=O (stereo partly drawn) [TR-111, N-(6-((2-(2,6-dioxopiperidin-3-yl)-1,3-dioxoisoindolin-4-yl)amino)hexyl)-2-(4-(6-(6-((R)-2-(3-fluorophenyl)pyrrolidin-1-yl)imidazo[1,2-b]pyridazin-3-yl)pyridin-2-yl)piperazin-1-yl)acetamide]	7.71
O=C1CCC(N2C(=O)c3ccc(NCCOCCOCCC(=O)N4CCN(c5cccc(-c6cnc7ccc(N8CCC[C@@H]8c8cccc(F)c8)nn67)n5)CC4)cc3C2=O)C(=O)N1 (stereo partly drawn) [TR-113, 2-(2,6-Dioxopiperidin-3-yl)-5-((2-(2-(3-(4-(6-(6-((R)-2-(3-fluorophenyl)pyrrolidin-1-yl)imidazo[1,2-b]pyridazin-3-yl)pyridin-2-yl)piperazin-1-yl)-3-oxopropoxy)ethoxy)ethyl)amino)isoindoline-1,3-dione]	8.89
O=C1CCC(N2C(=O)c3ccc(NCCOCCOCCOCCC(=O)N4CCN(c5cccc(-c6cnc7ccc(N8CCC[C@@H]8c8cccc(F)c8)nn67)n5)CC4)cc3C2=O)C(=O)N1 (stereo partly drawn) [TR-114, 2-(2,6-Dioxopiperidin-3-yl)-5-((2-(2-(2-(3-(4-(6-(6-((R)-2-(3-fluorophenyl)pyrrolidin-1-yl)imidazo[1,2-b]pyridazin-3-yl)pyridin-2-yl)piperazin-1-yl)-3-oxopropoxy)ethoxy)ethoxy)ethyl)amino)isoindoline-1,3-dione]	7.77
O=C1CCC(N2C(=O)c3ccc(NCCCCC(=O)N4CCN(c5cccc(-c6cnc7ccc(N8CCC[C@@H]8c8cccc(F)c8)nn67)n5)CC4)cc3C2=O)C(=O)N1 (stereo partly drawn) [TR-115, 2-(2,6-Dioxopiperidin-3-yl)-5-((5-(4-(6-(6-((R)-2-(3-fluorophenyl)pyrrolidin-1-yl)imidazo[1,2-b]pyridazin-3-yl)pyridin-2-yl)piperazin-1-yl)-5-oxopentyl)amino)isoindoline-1,3-dione]	9.05
O=C1CCC(N2C(=O)c3ccc(NCCOCCOCCOCCOCCOCCC(=O)N4CCN(c5cccc(-c6cnc7ccc(N8CCC[C@@H]8c8cccc(F)c8)nn67)n5)CC4)cc3C2=O)C(=O)N1 (stereo partly drawn) [TR-116, 2-(2,6-Dioxopiperidin-3-yl)-5-((18-(4-(6-(6-((R)-2-(3-fluorophenyl)pyrrolidin-1-yl)imidazo[1,2-b]pyridazin-3-yl)pyridin-2-yl)piperazin-1-yl)-18-oxo-3,6,9,12,15-pentaoxaoctadecyl)amino)isoindoline-1,3-dione]	8.70
O=C1CCC(N2C(=O)c3ccc(NCCCCCCC(=O)N4CCN(c5cccc(-c6cnc7ccc(N8CCC[C@@H]8c8cccc(F)c8)nn67)n5)CC4)cc3C2=O)C(=O)N1 (stereo partly drawn) [TR-117, 2-(2,6-Dioxopiperidin-3-yl)-5-((7-(4-(6-(6-((R)-2-(3-fluorophenyl)pyrrolidin-1-yl)imidazo[1,2-b]pyridazin-3-yl)pyridin-2-yl)piperazin-1-yl)-7-oxoheptyl)amino)isoindoline-1,3-dione]	8.37
O=C1CCC(N2C(=O)c3ccc(NCCCCCCCC(=O)N4CCN(c5cccc(-c6cnc7ccc(N8CCC[C@@H]8c8cccc(F)c8)nn67)n5)CC4)cc3C2=O)C(=O)N1 (stereo partly drawn) [TR-118, 2-(2,6-Dioxopiperidin-3-yl)-5-((8-(4-(6-(6-((R)-2-(3-fluorophenyl)pyrrolidin-1-yl)imidazo[1,2-b]pyridazin-3-yl)pyridin-2-yl)piperazin-1-yl)-8-oxooctyl)amino)isoindoline-1,3-dione]	8.20
O=C1CCC(N2C(=O)c3ccc(NCCOCCC(=O)N4CCN(c5cccc(-c6cnc7ccc(N8CCC[C@@H]8c8cccc(F)c8)nn67)n5)CC4)cc3C2=O)C(=O)N1 (stereo partly drawn) [TR-119, 2-(2,6-Dioxopiperidin-3-yl)-5-((2-(3-(4-(6-(6-((R)-2-(3-fluorophenyl)pyrrolidin-1-yl)imidazo[1,2-b]pyridazin-3-yl)pyridin-2-yl)piperazin-1-yl)-3-oxopropoxy)ethyl)amino)isoindoline-1,3-dione]	8.80
O=C1CCC(N2C(=O)c3ccc(NCCOCCOCCOCCOCCC(=O)N4CCN(c5cccc(-c6cnc7ccc(N8CCC[C@@H]8c8cccc(F)c8)nn67)n5)CC4)cc3C2=O)C(=O)N1 (stereo partly drawn) [TR-120, 2-(2,6-Dioxopiperidin-3-yl)-5-((15-(4-(6-(6-((R)-2-(3-fluorophenyl)pyrrolidin-1-yl)imidazo[1,2-b]pyridazin-3-yl)pyridin-2-yl)piperazin-1-yl)-15-oxo-3,6,9,12-tetraoxapentadecyl)amino)isoindoline-1,3-dione]	8.00
O=C1CCC(N2C(=O)c3ccc(NCCC(=O)N4CCN(c5cccc(-c6cnc7ccc(N8CCC[C@@H]8c8cccc(F)c8)nn67)n5)CC4)cc3C2=O)C(=O)N1 (stereo partly drawn) [TR-121, 2-(2,6-Dioxopiperidin-3-yl)-5-((3-(4-(6-(6-((R)-2-(3-fluorophenyl)pyrrolidin-1-yl)imidazo[1,2-b]pyridazin-3-yl)pyridin-2-yl)piperazin-1-yl)-3-oxopropyl)amino)isoindoline-1,3-dione]	8.68
O=C1CCC(N2C(=O)c3ccc(NCCCCCC(=O)N4CCN(c5cccc(-c6cnc7ccc(N8CCC[C@@H]8c8cccc(F)c8)nn67)n5)CC4)cc3C2=O)C(=O)N1 (stereo partly drawn) [TR-122, 2-(2,6-Dioxopiperidin-3-yl)-5-((6-(4-(6-(6-((R)-2-(3-fluorophenyl)pyrrolidin-1-yl)imidazo[1,2-b]pyridazin-3-yl)pyridin-2-yl)piperazin-1-yl)-6-oxohexyl)amino)isoindoline-1,3-dione]	8.57
O=C(CN1CCN(c2cccc(-c3cnc4ccc(N5CCC[C@@H]5c5cccc(F)c5)nn34)n2)CC1)NCCCCNc1ccc2c(c1)C(=O)N(C1CCC(=O)NC1=O)C2=O (stereo partly drawn) [TR-124, N-(4-((2-(2,6-dioxopiperidin-3-yl)-1,3-dioxoisoindolin-5-yl)amino)butyl)-2-(4-(6-(6-((R)-2-(3-fluorophenyl)pyrrolidin-1-yl)imidazo[1,2-b]pyridazin-3-yl)pyridin-2-yl)piperazin-1-yl)acetamide]	8.55
